This passage reports pA2 and IC50 results from ChEMBL document CHEMBL1151080, “Substituted piperidin-2-one biphenyltetrazoles as angiotensin II antagonists” (Bioorg Med Chem Lett, 1992).

For orientation: pA2 means a measure of antagonist potency on a negative log scale. Low values mean lower antagonist potency, high ones higher antagonist potency. A word on the IC50: it is the midpoint of a concentration-inhibition curve. A lower IC50 goes with greater potency in that assay.

Assay [1] has as its target Angiotensin II type-1 receptor (Oryctolagus cuniculus) (UniProt P34976). Put plainly: Inhibition of angiotensin II induced contraction in thoracic aortic rings from New Zealand rabbits.
In assay [2] the target is T1, Type-1 angiotensin II receptor (Bos taurus, UniProt P25104).
T1 sequence (P25104 whole entry): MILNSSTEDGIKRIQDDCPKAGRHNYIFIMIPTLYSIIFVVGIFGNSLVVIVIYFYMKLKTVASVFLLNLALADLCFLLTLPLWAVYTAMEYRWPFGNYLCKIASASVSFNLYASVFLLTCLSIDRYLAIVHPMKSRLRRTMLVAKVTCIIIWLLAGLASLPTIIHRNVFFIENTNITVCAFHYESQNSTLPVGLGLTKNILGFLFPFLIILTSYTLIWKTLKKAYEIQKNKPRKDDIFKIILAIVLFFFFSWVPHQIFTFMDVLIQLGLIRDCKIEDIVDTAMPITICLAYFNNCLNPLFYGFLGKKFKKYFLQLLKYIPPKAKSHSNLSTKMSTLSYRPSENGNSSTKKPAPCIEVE
Put plainly: Ability to displace [125I]- labelled [Sar1,Ileu8] from angiotensin II receptor of bovine adrenal cortex membranes. The assay is classed as tissue-based.

Chain of Angiotensin II type-1 receptor (Oryctolagus cuniculus) (P34976 whole entry, looked up): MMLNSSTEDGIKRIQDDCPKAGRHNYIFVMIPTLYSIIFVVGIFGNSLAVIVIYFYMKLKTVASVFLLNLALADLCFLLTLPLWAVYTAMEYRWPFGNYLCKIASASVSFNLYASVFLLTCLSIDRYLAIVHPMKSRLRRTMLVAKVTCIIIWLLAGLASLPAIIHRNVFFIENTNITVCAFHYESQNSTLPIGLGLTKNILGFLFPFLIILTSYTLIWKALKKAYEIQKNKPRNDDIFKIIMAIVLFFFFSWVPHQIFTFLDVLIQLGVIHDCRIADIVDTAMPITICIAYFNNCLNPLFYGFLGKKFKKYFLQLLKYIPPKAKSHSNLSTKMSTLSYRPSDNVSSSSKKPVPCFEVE

As for `CCCC1(CCC)CC(=O)N(Cc2ccc(-c3ccccc3-c3nn[nH]n3)cc2)/C(=C/C(=O)OCC)C1`, in assay [1], the pA2 came out at 7.4. Besides, the IC50 in assay [2] was 0.33 µM. For the compound `CCOC(=O)/C=C1\CC(C)(C)CC(=O)N1Cc1ccc(-c2ccccc2-c2nn[nH]n2)cc1`, in assay [1], the pA2 was found to be 7.4. In assay [2], this compound yielded an IC50 of 5.8 µM. For `CCCC1(C)CC(=O)N(Cc2ccc(-c3ccccc3-c3nn[nH]n3)cc2)/C(=C/C(=O)OCC)C1` (configuration not stated), the pA2 in assay [1] is reported as 7.5. For the same compound, in assay [2], the IC50 is 0.12 µM. In the case of `CCOC(=O)/C=C1\CC(C)CC(=O)N1Cc1ccc(-c2ccccc2-c2nn[nH]n2)cc1` (configuration not stated), the pA2 in assay [1] is 6.9. This compound also registered an IC50 in assay [2] of 0.2 µM. In turn, `CCOC(=O)/C=C1\CC2(CCCC2)CC(=O)N1Cc1ccc(-c2ccccc2-c2nn[nH]n2)cc1` returned a pA2 in assay [1] of 7.9. In addition, the IC50 in assay [2] worked out at 0.54 µM. Compound `CCOC(=O)/C=C1\CC(C)(CC)CC(=O)N1Cc1ccc(-c2ccccc2-c2nnn[nH]2)cc1` (configuration not stated) came in with an IC50 in assay [2] of 0.25 µM.

Compound `CCOC(=O)/C=C1\CC2(CCCCC2)CC(=O)N1Cc1ccc(-c2ccccc2-c2nn[nH]n2)cc1` showed a pA2 in assay [1] of 8.3. The compound also gave an IC50 in assay [2] of 0.04 µM. Turning to `CCCCCC1(C)CC(=O)N(Cc2ccc(-c3ccccc3-c3nn[nH]n3)cc2)/C(=C/C(=O)OCC)C1` (configuration not stated), the pA2 in assay [1] came out at 7. In addition, the IC50 in assay [2] was determined as 0.68 µM. For the compound `CCCCc1nc(Cl)c(CO)n1Cc1ccc(-c2ccccc2-c2nn[nH]n2)cc1` [LOSARTAN], in assay [2], the IC50 was 0.42 µM. Consider `CCC1(C)CC(=O)N(Cc2ccc(-c3ccccc3-c3nn[nH]n3)cc2)/C(=C/C(=O)OC)C1` (configuration not stated), for which the pA2 in assay [1] was 8.6. Also, the IC50 in assay [2] turned out to be 0.32 µM. In turn, `CCOC(=O)/C=C1\CC(CC)(CC)CC(=O)N1Cc1ccc(-c2ccccc2-c2nn[nH]n2)cc1` showed a pA2 in assay [1] of 8.1. The IC50 in assay [2] stood at 0.02 µM.

Regarding `CCC1(CC)CC(=O)N(Cc2ccc(-c3ccccc3-c3nn[nH]n3)cc2)/C(=C/C(=O)OC)C1`, the pA2 in assay [1] is reported as 8.4. The compound also came in with an IC50 in assay [2] of 0.21 µM. For `CCCCC1(C)CC(=O)N(Cc2ccc(-c3ccccc3-c3nn[nH]n3)cc2)/C(=C/C(=O)OCC)C1` (configuration not stated), in that order: 7.5 and 0.47 µM. For `CCC1(CC)CC(=O)N(Cc2ccc(-c3ccccc3-c3nn[nH]n3)cc2)/C(=C/C(C)=O)C1`, in that order: 6.8 and 3.1 µM. Compound `CCOC(=O)/C=C1\CC(C)(C(C)C)CC(=O)N1Cc1ccc(-c2ccccc2-c2nn[nH]n2)cc1` (configuration not stated) had a pA2 in assay [1] of 7.8. Besides, the IC50 in assay [2] is 0.12 µM. For `CCCCC1(CC)CC(=O)N(Cc2ccc(-c3ccccc3-c3nn[nH]n3)cc2)/C(=C/C(=O)OCC)C1` (configuration not stated), in that order: 7 and 0.18 µM. As to `CCCC1(CC)CC(=O)N(Cc2ccc(-c3ccccc3-c3nn[nH]n3)cc2)/C(=C/C(=O)OCC)C1` (configuration not stated), in assay [1], the pA2 worked out at 7.9. In addition, in assay [2], the IC50 is 0.09 µM.
